The METLIN SMRT retention time set (Domingo-Almenara et al. 2019)

Assay: gradient 5% acetonitrile 3 min, to 50% in 2 min, to 85% in 15 min, held 3 min, 100 µL/min
Details: column: Zorbax Extend-C18 2.1 x 50 mm; eluents: water / acetonitrile, 0.1% formic acid
Method in brief: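 The mobile phases were water and acetonitrile, each with 0.1% formic acid, pumped at 100 μL/min through a Zorbax Extend-C18 column (2.1 × 50 mm, 1.8 μm). Pure standards were injected as mixtures of ~100 molecules and detected by a quadrupole time-of-flight mass spectrometer in positive and negative ionization mode. Retention time came from computationally picked adduct peaks, each inspected by hand.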

Compared with `Cc1ccc(Oc2cccc(NC(=O)Cc3noc4ccccc34)c2)nn1`, `CCOC(=O)c1ccc(NC(=O)COc2cc(C)nc(N3CCN(c4ccccc4)CC3)n2)cc1` is higher in RP-LC retention time: 699 s for the first, 864 s for the second.

Compared with `CCOc1ccccc1-c1noc(Cn2c(=O)n(CC)c(=O)c3ccccc32)n1`, `Cc1ccc(-c2noc(Cn3c(=O)n(Cc4ccccc4)c(=O)c4sccc43)n2)cc1C` is higher in RP-LC retention time: 983 s for the first, 1160 s for the second.

Compared with `O=C(Nc1cccc(C(F)(F)F)c1)c1ccc(-n2cnc(NC(=O)C3CC3)c2)cc1`, `CC1CS(=O)(=O)N(c2ccc(C(=O)NCCc3c[nH]c4ccccc34)cc2)C1=O` (stereo not given) is lower in RP-LC retention time: 872 s for the first, 780 s for the second.

Compared with `CCOc1cc(S(=O)(=O)Nc2ncccc2C)ccc1Br`, `CCn1cc(CCNS(=O)(=O)c2ccc(C)cc2)c2cccnc21` is higher in RP-LC retention time: 666 s for the first, 786 s for the second.

Going from `Cc1ccc(N2CCC(NC(=O)NC(C)C)C2=O)cc1` (stereo not given) to `Cc1ccc(C)c(NC(=O)CN2C(=O)NC3(CCC(C)CC3)C2=O)c1` (stereo not given), the RP-LC retention time rises from 688 s to 777 s.

Going from `COc1ccc(C(=O)N2CCC3(CC2)NC(=O)c2ccc(F)cc2N3C)cc1OC` to `Cc1cccc(C(=O)N2CCC3(CC2)NC(=O)c2ccc(F)cc2N3C)c1`, the RP-LC retention time rises from 698 s to 763 s.

First: O=C(Nc1ccccc1Cl)C1=Cc2ccccc2OC1
Second: CC(C)(C)NC(=O)c1ccc2nc(-c3ccccc3)cn2c1
The RP-LC retention time of the first is higher: 975 s for the first, 783 s for the second.

Compared with `COc1cccc(NC(=O)C2CCN(c3cc(N4CCCCC4)ncn3)CC2)c1`, `COc1cccc(-c2cc(C3CCN(C(=O)NC4CCCC4)CC3)[nH]n2)c1` is higher in RP-LC retention time: 708 s for the first, 790 s for the second.

First: CN(C(=O)Cn1nc(Cc2ccncc2)c2ccccc2c1=O)c1ccc(Br)cc1
Second: COc1cccc(-n2c(N3CCCC(C(=O)NCc4ccccc4)C3)nc3ccsc3c2=O)c1 (stereo not given)
The RP-LC retention time of the first is lower: 655 s for the first, 859 s for the second.

Compared with `CS(=O)(=O)N1CCn2nc(-c3cccs3)cc21`, `COc1cc2c(cc1OC)CN(C(=O)c1cc(-c3cccs3)[nH]n1)CC2` is higher in RP-LC retention time: 681 s for the first, 703 s for the second.

Going from `Cc1nnc(-c2coc(S(=O)(=O)N3CCOCC3)c2)o1` to `Cc1oc(C2CCN(C(=O)CCc3cc(Cl)no3)CC2)nc1C(=O)N1CCOCC1`, the RP-LC retention time rises from 654 s to 684 s.

Going from `CC(=O)Nc1cc(C(=O)NC2CCCC2)c2ccc(C)nc2c1` to `O=C(NC1CCCC1)C1CCN(c2nc3ccc(-c4cccnc4)nc3s2)CC1`, the RP-LC retention time rises from 600 s to 654 s.

Compared with `O=C(c1ccc2c(c1)OCO2)N1CCCn2nc(-c3ccncc3)cc2C1`, `CNC(=O)C1CCN(c2nc3ccc(-c4ccncc4)nc3s2)CC1` is lower in RP-LC retention time: 584 s for the first, 568 s for the second.

Compared with `Cc1ccccc1NC(=O)N(C)CCc1noc(COc2ccccc2F)n1`, `COC(=O)C1=CN(c2ccccc2C)c2ccc(F)cc2S1(=O)=O` is lower in RP-LC retention time: 926 s for the first, 879 s for the second.

First: CCOCCCNC(=O)C1CCN(c2nccnc2Oc2cccc(C)c2)CC1
Second: Cc1nn(-c2ccccc2)c(C)c1S(=O)(=O)N1CCC(C(=O)NCc2cccs2)CC1
The RP-LC retention time of the first is lower: 861 s for the first, 876 s for the second.

Going from `Cc1cc2c(=O)n(CC(=O)Nc3ccc(F)cc3C)ccc2s1` to `Cc1sc2ccn(CC(C)C)c(=O)c2c1C(=O)NCc1ccccc1F`, the RP-LC retention time rises from 762 s to 994 s.

Compared with `CC(=O)N1CCc2sc(S(=O)(=O)N3CCN(c4ccccc4)CC3)cc2C1`, `CSc1cccc(NS(=O)(=O)c2cc3c(s2)CCN(C(=O)C2CC2)C3)c1` is lower in RP-LC retention time: 884 s for the first, 860 s for the second.

Compared with `O=C(c1ccsc1)N1CCC(c2nncn2Cc2ccccc2)CC1`, `O=C(COc1ccc(Cl)cc1)N1CC(n2cnnc2C2CC2)C1` is higher in RP-LC retention time: 663 s for the first, 675 s for the second.

Compared with `Cc1ccc(Nc2c(-c3cccc(Br)c3)nc3ccc(C)cn23)cc1`, `CNC(=O)c1cccc(Nc2c(-c3ccc(SC)cc3)nc3cnccn23)c1` is lower in RP-LC retention time: 830 s for the first, 692 s for the second.

Compared with `Cc1cccc(-c2noc(-c3nn(CC(=O)N4CCCC4)c4ccccc34)n2)c1`, `Cc1cc(=O)n(CC(=O)N2CCc3ccccc32)c(N2CCCCC2)n1` is lower in RP-LC retention time: 1080 s for the first, 679 s for the second.

Going from `COc1ccc(-c2nc(Cn3cnc4nc5c(cc4c3=O)CCCC5)c(C)o2)c(OC)c1` to `COC(=O)c1ccc2c(=O)n(-c3ccc(OC)c(OC)c3)c(N3CCOCC3)nc2c1`, the RP-LC retention time falls from 845 s to 800 s.

Going from `COc1ccc(CNC(=O)C2(C)Cn3nc(C)cc3C(=O)N2c2ccc(F)cc2)cc1` (stereo not given) to `COc1ccc(CNC(=O)c2cn(-c3cc(N4CCCC(C)C4)ncn3)cn2)cc1` (stereo not given), the RP-LC retention time rises from 764 s to 974 s.

Going from `CC12C=CC(O1)C1C(=O)N(c3ccc(N4CCOCC4)cc3)C(=O)C12` (stereo not given) to `COCc1cc(=O)n(CC(=O)Nc2ccc(OC)c(OC)c2)c(N2CCOCC2)n1`, the RP-LC retention time rises from 662 s to 702 s.

Compared with `Cc1cc(C(=O)N(CC2CCCO2)c2nc3c(F)cc(F)cc3s2)on1` (stereo not given), `Cc1cc(C)cc(NC(=O)Cn2c(C)nc3onc(C)c3c2=O)c1` is lower in RP-LC retention time: 1080 s for the first, 802 s for the second.

Going from `O=S(=O)(c1ccccc1)N1CC2CN(S(=O)(=O)c3cccc(F)c3)CC(C1)O2` to `O=S(=O)(Cc1ccccc1)N1CCC(Cc2nncn2-c2ccccc2)C1` (stereo not given), the RP-LC retention time falls from 905 s to 729 s.

Going from `CCN1C(=O)CCc2cc(NC(=O)c3ccnn3C)ccc21` to `Cc1c(Cl)cccc1NC(=O)CN1C(=O)CCCc2cc(S(=O)(=O)N3CCCC3)ccc21`, the RP-LC retention time rises from 677 s to 879 s.

Compared with `COc1cc(F)c(F)c(Nc2ccc(I)cc2F)c1NS(=O)(=O)C1(C[C@H](O)CO)CC1`, `Cc1ccc(F)cc1NS(=O)(=O)c1cc2n(c1)CCN(C(C)C)C2=O` is lower in RP-LC retention time: 1050 s for the first, 783 s for the second.

First: CCN1c2ccccc2C(=O)NC12CCN(C(=O)NC1CCCCC1)CC2
Second: O=C(CN1C(=O)C(C(=O)N2CCCCC2)Sc2ccccc21)NC1CCCCCC1 (stereo not given)
The RP-LC retention time of the first is lower: 771 s for the first, 1090 s for the second.

Going from `O=C(c1ccco1)N1CCN(C(=O)C2CCN(c3nc4ccccc4[nH]c3=O)CC2)CC1` to `O=C(Nc1ccccc1F)C1CCN(S(=O)(=O)c2cc(C(=O)N3CCOCC3)cs2)CC1`, the RP-LC retention time rises from 631 s to 742 s.

Compared with `COc1cc(=O)n2c(c1C(=O)Nc1ccc(Cl)c(Cl)c1)CCCC2`, `Cc1cc(C)cc(C(=O)Nc2ccc3c(c2)Sc2ncccc2C(=O)N3C)c1` is higher in RP-LC retention time: 823 s for the first, 888 s for the second.

Compared with `N#Cc1ncc(Cl)c2ccccc12`, `O=C(NCc1[nH]nc2ccccc12)c1ccc(Cl)cc1` is lower in RP-LC retention time: 1020 s for the first, 779 s for the second.

Compared with `CCOC(=O)C1CCC(CNC(=O)Nc2ccc(-c3nc(-c4ccc(C)cc4C)co3)cc2)CC1` (stereo not given), `Cc1ccc(CNC(=O)C2(C)CCN(C(=O)Nc3cccc(Cl)c3C)CC2)cc1` is lower in RP-LC retention time: 1240 s for the first, 717 s for the second.

First: Cc1ccc(C)c(N2CCN(c3ccnc(SCC(=O)Nc4cccc(Cl)c4C)n3)CC2)c1
Second: COc1ccc(-c2noc(-c3cccnc3N3CCN(c4ccc(OC)cc4)CC3)n2)cc1
The RP-LC retention time of the first is lower: 1020 s for the first, 1070 s for the second.

First: COC(=O)CNC(=O)NCCn1c(-c2ccccc2)nc2cccnc21
Second: COc1cccc(NC(=O)N2CCCC(C)(C(=O)NCc3ccccc3C)C2)c1 (stereo not given)
The RP-LC retention time of the first is lower: 591 s for the first, 890 s for the second.

Going from `Cc1onc(-c2ccccc2Cl)c1C(=O)NC1C(=O)N2C1SC(C)(C)C2C(=O)O` (stereo not given) to `CC(C)CNC(=O)N1c2ccccc2CC1c1nc(C2CC2)no1` (stereo not given), the RP-LC retention time rises from 815 s to 925 s.

First: CCn1nc(C)n2cc(S(=O)(=O)NCc3ccc(F)c(Cl)c3)cc2c1=O
Second: CN1CCn2cc(S(=O)(=O)Nc3cc(F)cc(F)c3)cc2C1=O
The RP-LC retention time of the first is higher: 930 s for the first, 727 s for the second.

First: CCOC(=O)c1c(C)c(CCC(=O)N2CCCCCC2)n(CC)c1C
Second: O=C(NC1CCCCC1)C1CCCN(S(=O)(=O)c2c[nH]c(C(=O)N3CCCCCC3)c2)C1 (stereo not given)
The RP-LC retention time of the first is higher: 985 s for the first, 866 s for the second.

Compared with `O=C(Cc1ccccc1F)N1C[C@H]2CNC(=O)[C@]23CCCC[C@@H]13`, `CC(C)(C)n1nnnc1C1CC2(CCOCC2)C(=O)N1Cc1ccccc1F` (stereo not given) is higher in RP-LC retention time: 683 s for the first, 756 s for the second.

Compared with `O=C(Cn1cnc2ccccc2c1=O)NC1CC1`, `Cc1ccc(C(=O)N2CCCCC2c2nncn2CC2CC2)s1` (stereo not given) is higher in RP-LC retention time: 596 s for the first, 740 s for the second.

First: Cc1[nH]c(=O)[nH]c(=O)c1S(=O)(=O)NC1CCCC1
Second: COc1ccc2c(c1)C1(CCN(S(=O)(=O)c3c(C)noc3C)C1)C(=O)N2C (stereo not given)
The RP-LC retention time of the first is lower: 620 s for the first, 877 s for the second.

First: O=S(=O)(Nc1ccc(Cn2cncn2)cc1)c1ccc(Cl)cc1
Second: O=C(Cn1nc2c3cc(-c4ccc(F)cc4)nn3ccn2c1=O)Nc1ccc(F)cc1Cl
The RP-LC retention time of the first is lower: 744 s for the first, 959 s for the second.

Going from `COc1ccc2cccc(C(=N)c3ccc(C)c4c3CCC4)c2c1` to `Fc1ccc(OCc2nnc3sc(Cc4ccc5c(c4)OCCO5)nn23)cc1`, the RP-LC retention time rises from 747 s to 913 s.

Compared with `CC(C)(C)c1ccc(C(=O)N(Cc2ccc(Br)o2)C2CCS(=O)(=O)C2)cc1` (stereo not given), `CCS(=O)(=O)c1ccc2c(c1)N(Cc1nc(-c3ccc(C)c(C)c3)no1)C(=O)CO2` is lower in RP-LC retention time: 1110 s for the first, 1000 s for the second.

Compared with `CSc1ccc(CN2CC(c3nc(C)no3)C2)cc1`, `Cc1cccc(-c2nnc(Cc3nc(C(C)(C)C)no3)o2)c1` is higher in RP-LC retention time: 530 s for the first, 1000 s for the second.

Compared with `O=C(NCC(O)c1ccsc1)Nc1cccs1` (stereo not given), `Cc1cc(NC(=O)c2cc(-c3cccs3)[nH]n2)sn1` is higher in RP-LC retention time: 642 s for the first, 672 s for the second.
